Eight molecules from PubChem BioAssay (NCI) can be followed below.

The structures appear in SMILES notation. Where “and” joins values, the source holds several entries; their conditions need not be identical. Equal values may be shown once.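 48-hour exposure; five concentrations; linearly interpolated endpoints. GI50 is the concentration that inhibits growth by half. The concentration for full growth arrest is given as TGI.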

Test in all cases: NCI-60 cell line screen, 48 h
For assay [1], the system named is A498 renal.
Assay [2] concerns HT29 colon.
Assay [3] has as its system KM12 colon.
Assay [4] relates to MCF7 breast.
Assay [5] relates to MDA-MB-435.
Assay [6] concerns MOLT-4 leukemia.
The subject of assay [7] is SF-295 CNS.
In assay [8] the test system is SK-MEL-5 melanoma.
For assay [9], the system named is SK-OV-3 ovarian.
For assay [10], the system named is SNB-75 CNS.

On to `Cc1ccc(C(=O)Nc2ccc(CN3CCN(C)CC3)c(C(F)(F)F)c2)cc1C#Cc1cnc(N)c2ccc(C#N)cc12`, for which the GI50 in assay [1] was 133 nM; in assay [2], 211 nM; in assay [3] it was 304 nM; in assay [4], 4210 nM; in [5], 25.9 nM; in assay [6] it was 105 nM. Moreover, the GI50 in [7] is 8850 nM; in assay [8], 331 nM; in [9] it was 98.1 nM; in assay [10] it was 46.8 nM. Besides, the TGI in assay [1] is 49300 nM; in [3] it was 17400 nM; in [4], 29600 nM; in assay [5], 1650 nM; in [6], greater than 12000 nM; in assay [7], greater than 50000 nM. The TGI in assay [8] came to 6100 nM; in assay [9] it was 12800 nM; in assay [10], 13400 nM.

As for `CC(C)C[C@H](NC(=O)[C@H](Cc1ccccc1)NC(=O)c1cnccn1)B(O)O`, the GI50 in [1] is 0.833 nM; in assay [2], 1.66 nM; in assay [3], 2.29 nM; in assay [4] it was 1.3 nM; in assay [5], 0.748 nM; in assay [6], 1.43 nM. Further, the GI50 is 2.15 nM in [7]; < 10 nM and 1.4 nM in assay [8]; 18.7 nM and 8.5 nM in assay [9]; 2.32 nM in [10]. Moreover, the TGI in [1] is < 10 nM and 3.52 nM; in assay [3] it was 36.7 nM and 8.12 nM; in assay [5], < 10 nM and 1.86 nM; in [8] it was 14 nM and 4.11 nM; in [10] it was 26.6 nM and 6.98 nM.

In the case of `CCCCCCCCCCCCCCCCSS(C)(=O)=O`, the TGI in assay [1] was greater than 97200 nM; in assay [2], greater than 69600 nM; in assay [3] it was greater than 100000 nM; in assay [4], greater than 100000 nM; in assay [5], greater than 100000 nM; in assay [6], 6770 nM. Besides, the TGI in assay [7] was greater than 100000 nM; in assay [8], 59000 nM; in assay [9], greater than 100000 nM; in assay [10], 32600 nM.

With `COc1ccc2c(c1)O/C(=C\c1ccc([N+](=O)[O-])o1)C2=O`, the GI50 in assay [1] was 1740 nM; in [2] it was 452 nM; in [3] it was 1370 nM; in assay [4], 345 nM; in assay [5] it was 1610 nM; in assay [6], 2130 nM. Moreover, the GI50 is 2470 nM in assay [7], 1560 nM in assay [8], 4750 nM in assay [9] and 2240 nM in [10]. In addition, the TGI in assay [1] amounted to 4540 nM; in assay [2] it was 1920 nM; in [3], 3420 nM; in assay [4], 3120 nM; in [5], 3490 nM; in assay [6], 8260 nM. Further, the TGI in assay [7] is 11600 nM; in assay [8], 3080 nM; in assay [9] it was 59000 nM; in assay [10] it was 8260 nM.

Turning to `COC1=CC(=O)c2c(O)c3c(c(O)c2C1=O)OC1(Oc2c(cc4cc(C)oc(=O)c4c2O)CC1O)C3O` (centres undefined), the TGI in [1], in assay [2], in assay [3], in assay [4], in assay [5] and in assay [6] was greater than 100000 nM throughout. The TGI in assay [7] is greater than 100000 nM; in assay [8], 95000 nM; in [9], greater than 100000 nM; in assay [10], greater than 100000 nM.

As to `CC[C@]12C=CCN3CC[C@@]4(c5ccc(OC)cc5N(C)[C@H]4[C@@](O)(C(=O)OC)[C@@H]1OC(=O)CCCC[P+](c1ccccc1)(c1ccccc1)c1ccccc1)[C@@H]32`, the GI50 was 2840 nM in assay [1]; 441 nM in assay [2]; 440 nM in assay [3]; 320 nM in assay [4]; 359 nM in assay [5]; 1360 nM in assay [6]. In addition, the GI50 in [7] was 2650 nM; in assay [8], 1690 nM; in [9], 725 nM; in assay [10], 357 nM. Moreover, the TGI came out at 10400 nM in assay [1]; 5480 nM in [2]; 1850 nM in [3]; 5300 nM in assay [4]; 1310 nM in [5]; 5290 nM in [6]. The TGI was 9040 nM in [7], 3080 nM in assay [8], 5900 nM in assay [9] and 2080 nM in assay [10].

Regarding `Cc1cc(C)nc(NS(=O)(=O)c2ccc(Nc3nc4nc(NCc5ccccc5)nc(-c5ccc(O)cc5)c4c(=O)[nH]3)cc2)n1`, the GI50 was 24500 nM in assay [1]; 57900 nM in assay [2]; 15500 nM in assay [3]; 9580 nM in assay [4]; 21300 nM in assay [5]; 2380 nM in assay [6]. Further, the GI50 in assay [7] was 16700 nM; in assay [8] it was 25700 nM; in assay [9] it was greater than 100000 nM; in assay [10], 64600 nM. For the same molecule, the TGI in assay [1] was greater than 100000 nM; in assay [2], greater than 100000 nM; in [3], greater than 100000 nM; in [4] it was 56800 nM; in [5], greater than 100000 nM; in [6], 12800 nM. The TGI in assay [7] is 95000 nM; in [8], greater than 100000 nM; in assay [9] it was greater than 100000 nM; in assay [10], greater than 100000 nM.

In the case of `COc1ccc(NC(=O)COc2ccccc2)c(C(N)=O)c1`, the GI50 in [1] was 757 nM; in assay [2] it was 430 nM; in assay [3], 520 nM; in assay [4], 538 nM; in assay [5], 156 nM; in assay [6], 2670 nM. Moreover, the GI50 is 644 nM in assay [7], 1110 nM in assay [8], 3350 nM in assay [9] and 398 nM in assay [10]. For the same molecule, the TGI in [1] was 8380 nM; in assay [2], greater than 100000 nM; in assay [3], greater than 50300 nM; in assay [4] it was greater than 100000 nM; in assay [5] it was 845 nM; in assay [6], greater than 100000 nM. Further, the TGI in [7] is 16500 nM; in assay [8], greater than 76200 nM; in assay [9], greater than 100000 nM; in assay [10] it was 11200 nM.
